Common to all, as to assay type: cell-based, human
One assay deals with c-myc promoter. As to the kind of experiment: ChIP assay, c-myc promoter in SW480 cells. Conditions: 25 μM, 8 hours. The method, then:
FIG. 5. COMPOUND 1 inhibits the expression of cyclin D1. • A. Cyclin D1 levels are decreased with COMPOUND 1 treatment. Western blot analysis was performed on 25 μg of SW480 whole cell lysates treated for 4, 8, or 24 hours with either 25 μM of COMPOUND 1 or control (0.5% DMSO). Immunoblotting was performed using anti-Cyclin D1 antibodies (Santa Cruz Biotechnology Inc.). • B. In vivo occupancy of cyclin D1 and c-myc promoters by CBP and p300. […] ChIP assays were performed on promoter of c-myc from SW480 cells which was treated for 8 hours with COMPOUND 1 (25 μM) or control (0.5% DMSO). CBP (AC-26, a generous gift from Dr. David Livingston, Harvard University, Boston, Mass.) or p300 (C-20, Santa Cruz Biotechnology Inc.) specific antibodies were used to evaluate the promoter occupancy by CBP or p300 in presence of COMPOUND 1 or control (DMSO) treatment.
Formaldehyde cross-linking and chromatin immunoprecipitation assays of SW480 cells were performed as described previously (Barlev et al., “Acetylation of p53 activates transcription through recruitment of coactivators/histone acetyltransferases,” Mol. Cell 8:1243-54 (2001); El-Osta et al., “Analysis of chromatin-immunopurified MeCP2-associated fragments,” Biochem. Biophys. Res. Commun. 289:733-37 (2001); Shang et al., “Formation of the androgen receptor transcription Complex,” Mol. Cell 9:601-10 (2002)). […]

In assay [1] the test system is caspase-3/7 in HCT116 cells. The assay can be described thus: Caspase-3/7 activity assay, HCT116 cells. Conditions: 25 μM, 24 hours, compared to CCD18Co cells. The method, then:
(§1) FIG. 6. • A. COMPOUND 1 arrests cells in G1. FACS analysis was performed on SW480 (lower panel) and HCT116 (upper panel) cells treated for 24 hours with either COMPOUND 1 (25 μM) (right) or control (0.5% DMSO (left). 5.5×10^6 cells were fixed and stained with propidium iodide (PI). G0/G1, S, and G2/M are indicated by arrows. • B. COMPOUND 1 selectively activates caspases in colon carcinoma cell lines. SW480 and HCT116 (left graph) cells (10^5) along with the normal colonocytes, CCD18Co (right graph) were treated with either control (0.5% DMSO) or COMPOUND 1 (25 μM). 24 hours post treatment, cells were lysed and the caspase-3/7 enzymatic activities were measured. Relative fluorescence units (RFU) were calculated by subtracting the unit values of the blank (control, without cells) from the treated samples (COMPOUND 1 or control) and plotted.
(§2) SW480, HCT116, and CCD18Co cells were plated at 10^5 cells per well (96-well plates) for 24 hours prior to treatment. 25 μM of COMPOUND 1 or control (0.5% DMSO) was added to each well. 24 hours post treatment, cells were lysed and caspase activity was measured using a caspase-3/7 activity kit (Apo-One Homogeneous caspase-3/7 assay, #G77905, Promega). Relative fluorescence units (RFU) were obtained by subtracting the unit values of the blank (control, without cells) from the experimental measured values. […]

Assay [2] concerns caspase-3/7 in CCD18Co cells. As to the kind of experiment: Caspase-3/7 activity assay, normal colonocytes CCD18Co. Conditions: 25 μM, 24 hours. The method, then: as §1, §2

Consider `O=C1C(Cc2ccc(O)cc2)N2C(=O)CCN(C(=O)NCc3ccccc3)C2CN1Cc1cccc2ccccc12` (stereo not shown) [COMPOUND 1], for which, in the assay with c-myc promoter, the “Association of CBP with the c-myc promoter” value was “completely and selectively blocks”; the “Level of p300 associated with the c-myc promoter” value is on record as “increased”. In assay [1], the Caspase-3/7 activity entry is “specifically and significantly activated”. In addition, the Caspase activation entry in assay [2] is listed as “not in normal colonocytes”.

For the origin of these results see patent publication US7531320B2, “Modulation of β-catenin/TCF-activated transcription” (priority 2003, dated 2009).
